According to ChEMBL document CHEMBL5325488, “Discovery of SMD-3040 as a Potent and Selective SMARCA2 PROTAC Degrader with Strong in vivo Antitumor Activity” (J Med Chem, 2023):

What was measured:
[1] = target: T1, von Hippel-Lindau disease tumor suppressor/SWI/SNF-related matrix-associated actin-dependent regulator of chromatin subfamily A member 2 (Homo sapiens, UniProt P51531+P40337); assay: PROTAC activity at VHL/SMARCA2 in human RKO cells assessed as induction of SMARCA2 degradation incubated for 18 hrs by Western blotting analysis; format: cell-based
Target sequence in this assay (P51531 whole entry): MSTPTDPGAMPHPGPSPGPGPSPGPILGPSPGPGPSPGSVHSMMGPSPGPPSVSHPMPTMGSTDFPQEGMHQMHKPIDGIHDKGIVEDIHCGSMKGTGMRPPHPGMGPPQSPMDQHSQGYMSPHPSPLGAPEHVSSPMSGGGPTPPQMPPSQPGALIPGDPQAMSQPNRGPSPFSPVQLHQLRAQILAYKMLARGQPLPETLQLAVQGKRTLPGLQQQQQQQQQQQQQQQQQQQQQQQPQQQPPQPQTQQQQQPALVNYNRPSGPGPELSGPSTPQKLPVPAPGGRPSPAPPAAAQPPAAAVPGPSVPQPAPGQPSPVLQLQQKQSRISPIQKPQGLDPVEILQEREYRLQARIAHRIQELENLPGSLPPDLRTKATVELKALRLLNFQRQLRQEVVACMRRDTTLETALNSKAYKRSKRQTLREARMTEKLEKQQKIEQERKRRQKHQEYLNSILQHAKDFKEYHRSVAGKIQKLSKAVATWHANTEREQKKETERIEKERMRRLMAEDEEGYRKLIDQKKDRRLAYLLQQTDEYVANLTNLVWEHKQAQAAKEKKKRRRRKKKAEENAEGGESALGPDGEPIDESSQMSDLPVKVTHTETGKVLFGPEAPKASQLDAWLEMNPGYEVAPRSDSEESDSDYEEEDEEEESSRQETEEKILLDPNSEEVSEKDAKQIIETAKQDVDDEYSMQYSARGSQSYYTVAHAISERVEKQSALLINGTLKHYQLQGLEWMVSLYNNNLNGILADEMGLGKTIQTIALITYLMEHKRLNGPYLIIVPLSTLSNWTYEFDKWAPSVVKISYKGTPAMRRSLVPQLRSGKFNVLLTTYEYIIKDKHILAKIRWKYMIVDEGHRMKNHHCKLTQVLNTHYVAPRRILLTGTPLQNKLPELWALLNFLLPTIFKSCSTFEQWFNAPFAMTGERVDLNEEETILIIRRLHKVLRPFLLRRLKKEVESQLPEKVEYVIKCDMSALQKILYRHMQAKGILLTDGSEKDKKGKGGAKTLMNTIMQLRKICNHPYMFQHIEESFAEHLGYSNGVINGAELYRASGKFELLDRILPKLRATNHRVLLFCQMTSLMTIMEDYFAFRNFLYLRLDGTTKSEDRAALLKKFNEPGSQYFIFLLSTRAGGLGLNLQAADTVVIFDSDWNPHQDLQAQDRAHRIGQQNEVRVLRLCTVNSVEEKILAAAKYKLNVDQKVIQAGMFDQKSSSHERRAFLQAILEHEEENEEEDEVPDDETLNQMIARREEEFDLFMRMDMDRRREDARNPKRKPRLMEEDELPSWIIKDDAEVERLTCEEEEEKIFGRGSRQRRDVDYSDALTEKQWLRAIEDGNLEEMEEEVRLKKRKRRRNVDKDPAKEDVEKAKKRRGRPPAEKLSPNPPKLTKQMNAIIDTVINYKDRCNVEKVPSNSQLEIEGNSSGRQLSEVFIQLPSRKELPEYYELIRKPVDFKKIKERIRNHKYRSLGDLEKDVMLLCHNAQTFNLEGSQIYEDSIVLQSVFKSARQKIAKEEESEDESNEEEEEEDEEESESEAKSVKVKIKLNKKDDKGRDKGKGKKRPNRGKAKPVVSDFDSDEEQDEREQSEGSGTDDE
Target sequence in this assay (P40337 whole entry): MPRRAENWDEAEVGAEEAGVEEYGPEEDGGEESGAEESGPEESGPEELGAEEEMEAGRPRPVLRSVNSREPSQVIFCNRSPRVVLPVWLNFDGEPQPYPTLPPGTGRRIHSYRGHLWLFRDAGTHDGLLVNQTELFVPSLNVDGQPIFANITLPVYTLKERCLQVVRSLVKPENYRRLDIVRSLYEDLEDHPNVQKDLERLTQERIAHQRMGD

[2] = target: T1, von Hippel-Lindau disease tumor suppressor/SWI/SNF-related matrix-associated actin-dependent regulator of chromatin subfamily A member 2; assay: PROTAC activity at VHL/SMARCA2 in human RKO cells assessed as induction of SMARCA2 degradation by measuring maximal efficacy incubated for 18 hrs by Western blotting analysis relative to control; format: cell-based
Target sequence in this assay (P40337 whole entry, looked up): as the sequence (P40337 whole entry) above
Target sequence in this assay (P51531 whole entry, looked up): as the sequence (P51531 whole entry) above

[3] = target: T2, von Hippel-Lindau disease tumor suppressor/SWI/SNF-related matrix-associated actin-dependent regulator of chromatin subfamily A member 4 (Homo sapiens, UniProt P51532+P40337); assay: PROTAC activity at VHL/SMARCA4 in human RKO cells assessed as induction of […] degradation incubated for 18 hrs by Western blotting analysis; format: cell-based
Target sequence in this assay (P51532 whole entry): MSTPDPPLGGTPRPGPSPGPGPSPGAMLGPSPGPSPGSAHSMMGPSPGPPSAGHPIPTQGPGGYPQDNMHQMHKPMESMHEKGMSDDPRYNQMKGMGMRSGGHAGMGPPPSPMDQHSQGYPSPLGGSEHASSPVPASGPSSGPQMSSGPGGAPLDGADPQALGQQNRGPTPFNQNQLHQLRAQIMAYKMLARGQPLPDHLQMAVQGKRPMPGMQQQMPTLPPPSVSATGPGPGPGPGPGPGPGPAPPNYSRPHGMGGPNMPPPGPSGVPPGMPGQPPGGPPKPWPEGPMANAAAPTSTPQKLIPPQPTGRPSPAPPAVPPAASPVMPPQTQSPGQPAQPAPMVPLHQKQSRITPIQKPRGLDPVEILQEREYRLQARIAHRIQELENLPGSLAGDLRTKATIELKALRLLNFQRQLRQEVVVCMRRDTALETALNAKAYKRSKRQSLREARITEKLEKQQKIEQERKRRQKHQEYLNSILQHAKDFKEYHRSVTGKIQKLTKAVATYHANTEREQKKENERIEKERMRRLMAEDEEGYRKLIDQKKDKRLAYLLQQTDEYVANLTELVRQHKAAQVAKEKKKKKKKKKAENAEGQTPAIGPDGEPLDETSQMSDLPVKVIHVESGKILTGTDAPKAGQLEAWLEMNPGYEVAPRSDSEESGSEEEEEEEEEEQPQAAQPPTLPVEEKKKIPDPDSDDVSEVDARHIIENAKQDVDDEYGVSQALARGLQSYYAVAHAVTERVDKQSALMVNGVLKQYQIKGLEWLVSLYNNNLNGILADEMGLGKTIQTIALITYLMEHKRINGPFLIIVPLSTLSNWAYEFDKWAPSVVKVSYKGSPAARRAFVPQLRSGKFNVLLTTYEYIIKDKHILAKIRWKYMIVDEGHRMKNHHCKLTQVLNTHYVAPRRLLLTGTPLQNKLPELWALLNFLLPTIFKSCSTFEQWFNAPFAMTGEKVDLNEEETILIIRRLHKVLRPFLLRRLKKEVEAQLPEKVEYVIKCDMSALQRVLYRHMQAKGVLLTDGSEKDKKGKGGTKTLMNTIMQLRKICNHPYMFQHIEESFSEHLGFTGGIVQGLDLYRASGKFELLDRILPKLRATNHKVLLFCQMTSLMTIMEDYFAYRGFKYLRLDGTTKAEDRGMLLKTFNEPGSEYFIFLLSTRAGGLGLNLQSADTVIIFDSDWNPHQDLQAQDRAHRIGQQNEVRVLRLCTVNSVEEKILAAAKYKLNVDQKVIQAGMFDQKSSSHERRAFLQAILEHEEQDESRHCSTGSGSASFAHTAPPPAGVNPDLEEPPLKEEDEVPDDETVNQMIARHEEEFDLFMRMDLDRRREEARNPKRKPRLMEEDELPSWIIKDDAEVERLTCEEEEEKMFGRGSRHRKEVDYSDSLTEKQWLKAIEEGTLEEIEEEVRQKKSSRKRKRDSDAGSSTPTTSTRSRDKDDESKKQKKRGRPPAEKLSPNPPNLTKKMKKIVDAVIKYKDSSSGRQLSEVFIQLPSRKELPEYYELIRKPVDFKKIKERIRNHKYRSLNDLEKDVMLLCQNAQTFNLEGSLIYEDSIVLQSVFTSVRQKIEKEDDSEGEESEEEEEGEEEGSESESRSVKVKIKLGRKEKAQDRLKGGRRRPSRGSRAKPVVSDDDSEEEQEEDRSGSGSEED
Target sequence in this assay (P40337 whole entry): as the sequence (P40337 whole entry) above

[4] = target: T2, von Hippel-Lindau disease tumor suppressor/SWI/SNF-related matrix-associated actin-dependent regulator of chromatin subfamily A member 4; assay: PROTAC activity at VHL/SMARCA4 in human RKO cells assessed as induction of […] degradation by measuring maximal efficacy incubated for 18 hrs by Western blotting analysis relative to control; format: cell-based
Target sequence in this assay (P40337 whole entry, looked up): as the sequence (P40337 whole entry) above
Target sequence in this assay (P51532 whole entry, looked up): as the sequence (P51532 whole entry) above

[5] = target: T1, von Hippel-Lindau disease tumor suppressor/SWI/SNF-related matrix-associated actin-dependent regulator of chromatin subfamily A member 2; assay: PROTAC activity at VHL/C-terminal HiBiT fused SMARCA2 in human HeLa cells assessed as induction of SMARCA2 degradation by measuring maximal efficacy incubated for 24 hrs by Nano-Glo HiBiT analysis relative to control; format: cell-based
Target sequence in this assay (P40337 whole entry, looked up): as the sequence (P40337 whole entry) above
Target sequence in this assay (P51531 whole entry, looked up): as the sequence (P51531 whole entry) above

[6] = target: T2, von Hippel-Lindau disease tumor suppressor/SWI/SNF-related matrix-associated actin-dependent regulator of chromatin subfamily A member 4; assay: PROTAC activity at VHL/C-terminal HiBiT fused SMARCA4 in human HeLa cells assessed as induction of SMARCA4 degradation incubated for 24 hrs by Nano-Glo HiBiT analysis; format: cell-based
Target sequence in this assay (P51532 whole entry): as the sequence (P51532 whole entry) above
Target sequence in this assay (P40337 whole entry): as the sequence (P40337 whole entry) above

[7] = target: T2, von Hippel-Lindau disease tumor suppressor/SWI/SNF-related matrix-associated actin-dependent regulator of chromatin subfamily A member 4; assay: PROTAC activity at VHL/C-terminal HiBiT fused SMARCA4 in human HeLa cells assessed as induction of SMARCA4 degradation by measuring maximal efficacy incubated for 24 hrs by Nano-Glo HiBiT analysis relative to control; format: cell-based
Target sequence in this assay (P40337 whole entry, looked up): as the sequence (P40337 whole entry) above
Target sequence in this assay (P51532 whole entry, looked up): as the sequence (P51532 whole entry) above

[8] = target: T1, von Hippel-Lindau disease tumor suppressor/SWI/SNF-related matrix-associated actin-dependent regulator of chromatin subfamily A member 2; assay: PROTAC activity at VHL/C-terminal HiBiT fused SMARCA2 in human HeLa cells assessed as induction of SMARCA2 degradation incubated for 6 to 48 hrs by Nano-Glo HiBiT analysis; format: cell-based; conditions: dose lower 1e-06 µM, dose upper 1.0 µM, time 6-48 hrs
Target sequence in this assay (P40337 whole entry, looked up): as the sequence (P40337 whole entry) above
Target sequence in this assay (P51531 whole entry, looked up): as the sequence (P51531 whole entry) above

[9] = target: T1, von Hippel-Lindau disease tumor suppressor/SWI/SNF-related matrix-associated actin-dependent regulator of chromatin subfamily A member 2; assay: PROTAC activity at VHL/C-terminal HiBiT fused SMARCA2 in human HeLa cells assessed as induction of SMARCA2 degradation at 0.000001 to 1 uM by Nano-Glo HiBiT analysis; format: cell-based; conditions: dose lower 1e-06 µM, dose upper 1.0 µM, time 6-48 hrs, TDE = time-dependent effect
Target sequence in this assay (P40337 whole entry, looked up): as the sequence (P40337 whole entry) above
Target sequence in this assay (P51531 whole entry, looked up): as the sequence (P51531 whole entry) above

[10] = target: T2, von Hippel-Lindau disease tumor suppressor/SWI/SNF-related matrix-associated actin-dependent regulator of chromatin subfamily A member 4; assay: PROTAC activity at VHL/C-terminal HiBiT fused SMARCA4 in human HeLa cells assessed as induction of SMARCA4 degradation incubated for 6 to 48 hrs by Nano-Glo HiBiT analysis; format: cell-based; conditions: dose lower 1e-05 µM, dose upper 1.0 µM, time 6-48 hrs
Target sequence in this assay (P40337 whole entry, looked up): as the sequence (P40337 whole entry) above
Target sequence in this assay (P51532 whole entry, looked up): as the sequence (P51532 whole entry) above

[11] = target: T2, von Hippel-Lindau disease tumor suppressor/SWI/SNF-related matrix-associated actin-dependent regulator of chromatin subfamily A member 4; assay: PROTAC activity at VHL/C-terminal HiBiT fused SMARCA4 in human HeLa cells assessed as induction of SMARCA4 degradation at 0.00001 to 1 uM by Nano-Glo HiBiT analysis; format: cell-based; conditions: dose lower 1e-05 µM, dose upper 1.0 µM, time 6-48 hrs, TDE = time-dependent effect
Target sequence in this assay (P40337 whole entry, looked up): as the sequence (P40337 whole entry) above
Target sequence in this assay (P51532 whole entry, looked up): as the sequence (P51532 whole entry) above

[12] = test system: NCI-H1299; assay: Antiproliferative activity against SMARCA4-deficient human NCI-H1299 cells assessed as cell growth inhibition measured after 7 days by WST-8 assay; format: functional; conditions: NCI-H1299, 168 h, time 7 day
[13] = test system: NCI-H838; assay: Antiproliferative activity against SMARCA4-deficient human NCI-H838 cells assessed as cell growth inhibition measured after 7 days by WST-8 assay; format: functional; conditions: NCI-H838, 168 h, time 7 day
[14] = test system: A549; assay: Antiproliferative activity against SMARCA4-deficient human A549 cells assessed as cell growth inhibition measured after 7 days by WST-8 assay; format: functional; conditions: A549, 168 h, time 7 day
[15] = test system: NCI-H1944; assay: Antiproliferative activity against SMARCA4-deficient human NCI-H1944 cells assessed as cell growth inhibition measured after 7 days by WST-8 assay; format: functional; conditions: NCI-H1944, 168 h, time 7 day
[16] = test system: NCI-H1793; assay: Antiproliferative activity against SMARCA4-deficient human NCI-H1793 cells assessed as cell growth inhibition measured after 7 days by WST-8 assay; format: functional; conditions: NCI-H1793, 168 h, time 7 day
[17] = test system: SK-MEL-5; assay: Antiproliferative activity against SMARCA4-deficient human SK-MEL-5 cells assessed as cell growth inhibition measured after 7 days by WST-8 assay; format: functional; conditions: SK-MEL-5, 168 h, time 7 day
[18] = test system: NCI-H1693; assay: Antiproliferative activity against SMARCA4-deficient human NCI-H1693 cells assessed as cell growth inhibition measured after 7 days by WST-8 assay; format: functional; conditions: NCI-H1693, 168 h, time 7 day
[19] = Antiproliferative activity against SMARCA4-deficient human NCI-H1568 cells assessed as cell growth inhibition measured after 7 days by WST-8 assay; format: functional; conditions: NCI-H1568, 168 h, time 7 day
[20] = test system: NCI-H1792; assay: Antiproliferative activity against human NCI-H1792 cells expressing wild-type SMARCA2 assessed as cell growth inhibition measured after 7 days by WST-8 assay; format: functional; conditions: NCI-H1792, 168 h, time 7 day
[21] = test system: NCI-H1975; assay: Antiproliferative activity against human NCI-H1975 cells expressing wild-type SMARCA2 assessed as cell growth inhibition measured after 7 days by WST-8 assay; format: functional; conditions: NCI-H1975, 168 h, time 7 day
[22] = test system: SK-MEL-28; assay: Antiproliferative activity against human SK-MEL-28 cells expressing wild-type SMARCA2 assessed as cell growth inhibition measured after 7 days by WST-8 assay; format: functional; conditions: SK-MEL-28, 168 h, time 7 day
[23] = test system: NCI-H647; assay: Antiproliferative activity against human NCI-H647 cells expressing wild-type SMARCA2 assessed as cell growth inhibition measured after 7 days by WST-8 assay; format: functional; conditions: NCI-H647, 168 h, time 7 day
[24] = test system: NCI-H1299; assay: Antiproliferative activity against SMARCA4-deficient human NCI-H1299 cells assessed as cell growth inhibition by measuring maximal efficacy measured after 7 days by WST-8 assay relative to control; format: functional; conditions: time 7 day
[25] = test system: NCI-H838; assay: Antiproliferative activity against SMARCA4-deficient human NCI-H838 cells assessed as cell growth inhibition by measuring maximal efficacy measured after 7 days by WST-8 assay relative to control; format: functional; conditions: time 7 day
[26] = test system: A549; assay: Antiproliferative activity against SMARCA4-deficient human A549 cells assessed as cell growth inhibition by measuring maximal efficacy measured after 7 days by WST-8 assay relative to control; format: functional; conditions: time 7 day
[27] = test system: NCI-H1944; assay: Antiproliferative activity against SMARCA4-deficient human NCI-H1944 cells assessed as cell growth inhibition by measuring maximal efficacy measured after 7 days by WST-8 assay relative to control; format: functional; conditions: time 7 day
[28] = test system: NCI-H1793; assay: Antiproliferative activity against SMARCA4-deficient human NCI-H1793 cells assessed as cell growth inhibition by measuring maximal efficacy measured after 7 days by WST-8 assay relative to control; format: functional; conditions: time 7 day
[29] = test system: SK-MEL-5; assay: Antiproliferative activity against SMARCA4-deficient human SK-MEL-5 cells assessed as cell growth inhibition by measuring maximal efficacy measured after 7 days by WST-8 assay relative to control; format: functional; conditions: time 7 day
[30] = test system: NCI-H1693; assay: Antiproliferative activity against SMARCA4-deficient human NCI-H1693 cells assessed as cell growth inhibition by measuring maximal efficacy measured after 7 days by WST-8 assay relative to control; format: functional; conditions: time 7 day
[31] = Antiproliferative activity against SMARCA4-deficient human NCI-H1568 cells assessed as cell growth inhibition by measuring maximal efficacy measured after 7 days by WST-8 assay relative to control; format: functional; conditions: time 7 day
[32] = test system: NCI-H1792; assay: Antiproliferative activity against human NCI-H1792 cells expressing wild-type SMARCA2 assessed as cell growth inhibition by measuring maximal efficacy measured after 7 days by WST-8 assay relative to control; format: functional; conditions: time 7 day
[33] = test system: NCI-H1975; assay: Antiproliferative activity against human NCI-H1975 cells expressing wild-type SMARCA2 assessed as cell growth inhibition by measuring maximal efficacy measured after 7 days by WST-8 assay relative to control; format: functional; conditions: time 7 day
[34] = test system: SK-MEL-28; assay: Antiproliferative activity against human SK-MEL-28 cells expressing wild-type SMARCA2 assessed as cell growth inhibition by measuring maximal efficacy measured after 7 days by WST-8 assay relative to control; format: functional; conditions: time 7 day
[35] = test system: NCI-H647; assay: Antiproliferative activity against human NCI-H647 cells expressing wild-type SMARCA2 assessed as cell growth inhibition by measuring maximal efficacy measured after 7 days by WST-8 assay relative to control; format: functional; conditions: time 7 day

Cc1ncsc1-c1ccc([C@H](CC[C@H](C)CCN2CCC(c3ccc4c(c3)n(C3CCCC3)c3nc(=O)c5c(Br)cccc5n43)CC2)NC(=O)[C@@H]2C[C@@H](O)CN2C(=O)[C@@H](NC(=O)C2(F)CC2)C(C)(C)C)cc1
DC50 [1]: 1 nM
Emax [2]: 81%
DC50 [3]: 32 nM
Emax [4]: 67%
Emax [5]: 94%
DC50 [6]: 9 nM
Emax [7]: 92%
Activity [8]: Dose-Dependent Effect
Activity [9]: Tde
Activity [10]: Dose-Dependent Effect
Activity [11]: Tde
GI50 [12]: 116 nM
GI50 [13]: 67 nM
GI50 [14]: 30 nM
GI50 [15]: 13 nM
GI50 [16]: 7.3 nM
GI50 [17]: 4.9 nM
GI50 [18]: 2.8 nM
GI50 [19]: 2.8 nM
GI50 [20]: 135 nM
GI50 [21]: 65 nM
GI50 [22]: > 10000 nM
GI50 [23]: 165 nM
Imax [24]: 74%
Imax [25]: 82%
Imax [26]: 56%
Imax [27]: 82%
Imax [28]: 68%
Imax [29]: 96%
Imax [30]: 86%
Imax [31]: 90%
Imax [32]: 65%
Imax [33]: 63%
Imax [34]: 50%
Imax [35]: 80%
